From patent US8354441B2, “Oxazoline derivatives” (Hoffmann-La Roche Inc., priority 2009, dated 2013)

Tests used:
mouse TAAR1 = target: T1, mouse TAAR1 (Mus musculus, UniProt Q923Y8); test: TAAR1 radioligand binding with [3H]-rac-2-(1,2,3,4-tetrahydro-1-naphthyl)-2-imidazoline, membranes of stably transfected HEK293 cells; conditions: first value of the cell, read-out: Ki (μM) mouse/rat: mouse
T1 construct: expressed in transfected cells; host or cells: HEK293 (ATCC # CRL-1573), stably transfected with pIRESneo2 expression plasmid
Protocol: (§1) For the construction of expression plasmids the coding sequences of human, rat and mouse TAAR 1 were amplified from genomic DNA essentially as described by Lindemann et al.. The Expand High Fidelity PCR System (Roche Diagnostics) was used with 1.5 mM Mg^2+ and purified PCR products were cloned into pCR2.1-TOPO cloning vector (Invitrogen) following the instructions of the manufacturer. PCR products were subcloned into the pIRESneo2 vector (BD Clontech, Palo Alto, Calif.), and expression vectors were sequence verified before introduction in cell lines.
(§2) HEK293 cells (ATCC # CRL-1573) were cultured essentially as described by Lindemann et al. (2005). For the generation of stably transfected cell lines HEK293 cells were transfected with the pIRESneo2 expression plasmids containing the TAAR coding sequences (described above) with Lipofectamine 2000 (Invitrogen) according to the instructions of the manufacturer, and 24 hrs post transfection the culture medium was supplemented with 1 mg/ml G418 (Sigma, Buchs, Switzerland). After a culture period of about 10 d clones were isolated, expanded and tested for responsiveness to trace amines (all compounds purchased from Sigma) with the cAMP Biotrak Enzyme immunoassay (EIA) System (Amersham) following the non-acetylation EIA procedure provided by the manufacturer.
(§3) Cells at confluence were rinsed with ice-cold phosphate buffered saline without Ca^2+ and Mg^2+ containing 10 mM EDTA and pelleted by centrifugation at 1000 rpm for 5 min at 4° C. The pellet was then washed twice with ice-cold phosphate buffered saline and the cell pellet was frozen immediately by immersion in liquid nitrogen and stored until use at −80° C. The cell pellet was then suspended in 20 ml HEPES-NaOH (20 mM), pH 7.4 containing 10 mM EDTA, and homogenized with a Polytron (PT 3000, Kinematica) at 10,000 rpm for 10 s. The homogenate was centrifuged at 48,000×g for 30 min at 4° C. and the pellet resuspended in 20 ml HEPES-NaOH (20 mM), pH 7.4 containing 0.1 mM EDTA (buffer A), and homogenized with a Polytron at 10,000 rpm for 10 s. The homogenate was then centrifuged at 48,000×g for 30 min at 4° C. and the pellet resuspended in 20 ml buffer A, and homogenized with a Polytron at 10,000 rpm for 10 s. Protein concentration was determined by the method of Pierce (Rockford, Ill.). The homogenate was then centrifuged at 48,000×g for 10 min at 4° C., resuspended in HEPES-NaOH (20 mM), pH 7.0 including MgCl2 (10 mM) and […] homogenized with a Polytron at 10,000 rpm for 10 s.
(§4) The binding assay was performed at 4° C. in a final volume of 1 ml, and with an incubation time of 30 min. The radioligand [^3H]-rac-2-(1,2,3,4-tetrahydro-1-naphthyl)-2-imidazoline was used at a concentration equal to the calculated Kd value of 60 nM to give a bound at around 0.1% of the total added radioligand concentration, and a specific binding which represented approximately 70-80% of the total binding. Non-specific binding was defined as the amount of [^3H]-rac-2-(1,2,3,4-tetrahydro-1-naphthyl)-2-imidazoline bound in the presence of the appropriate unlabelled ligand (10 μM). Competing ligands were tested in a wide range of concentrations (10 pM-30 μM). […] Each experiment was performed in duplicate. All incubations were terminated by rapid filtration through UniFilter-96 plates (Packard Instrument Company) and glass filter GF/C, pre-soaked for at least 2 h in polyethylenimine 0.3%, and using a Filtermate 96 Cell Harvester (Packard Instrument Company). The tubes and filters were then washed 3 times with 1 ml aliquots of cold buffer B. Filters were not dried and soaked in Ultima gold (45 μl/well, Packard Instrument Company) and bound radioactivity was counted by a TopCount Microplate Scintillation Counter (Packard Instrument Company).

rat TAAR1 = target: T2, rat TAAR1 (Rattus norvegicus, UniProt Q923Y9); test: as above; conditions: second value of the cell, read-out: Ki (μM) mouse/rat: rat
T2 construct: expressed in transfected cells; host or cells: HEK293 (ATCC # CRL-1573), stably transfected with pIRESneo2 expression plasmid
Protocol: as §1, §2, §3, §4

T2 sequence (Q923Y9 whole entry): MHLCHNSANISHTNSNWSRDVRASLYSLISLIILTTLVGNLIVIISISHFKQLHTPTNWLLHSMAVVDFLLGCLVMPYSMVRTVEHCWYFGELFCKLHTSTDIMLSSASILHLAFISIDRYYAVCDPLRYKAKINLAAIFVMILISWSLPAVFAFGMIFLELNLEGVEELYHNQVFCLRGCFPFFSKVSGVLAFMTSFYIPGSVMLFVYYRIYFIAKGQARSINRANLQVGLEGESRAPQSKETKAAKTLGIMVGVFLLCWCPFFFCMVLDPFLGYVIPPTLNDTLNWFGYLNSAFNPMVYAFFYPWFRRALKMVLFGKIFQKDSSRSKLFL
T1 sequence (Q923Y8 whole entry): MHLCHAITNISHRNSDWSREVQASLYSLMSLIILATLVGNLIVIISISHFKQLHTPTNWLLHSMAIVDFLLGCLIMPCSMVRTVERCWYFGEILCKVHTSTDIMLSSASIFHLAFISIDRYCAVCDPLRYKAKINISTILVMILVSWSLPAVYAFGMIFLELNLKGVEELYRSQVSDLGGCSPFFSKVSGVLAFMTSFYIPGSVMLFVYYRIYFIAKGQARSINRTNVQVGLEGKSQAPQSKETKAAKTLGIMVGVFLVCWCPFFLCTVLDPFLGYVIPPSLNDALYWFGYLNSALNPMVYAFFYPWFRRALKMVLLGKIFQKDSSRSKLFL

SMILES | Ki (mouse TAAR1) | Ki (rat TAAR1)
NC1=N[C@@H](CCc2ccc(NC(=O)c3ccc(C(F)(F)F)nc3)cc2)CO1 [Example 55, N-{4-[2-((S)-2-Amino-4,5-dihydro-oxazol-4-yl)-ethyl]-phenyl}-6-trifluoromethyl-nicotinamide] | 0.0025 µM | 0.003 µM
NC1=N[C@@H](CCc2ccc(N3CCN(c4ccc(F)cc4)C3=O)cc2)CO1 [Example 56, 1-{4-[2-((S)-2-Amino-4,5-dihydro-oxazol-4-yl)-ethyl]-phenyl}-3-(4-fluoro-phenyl)-imidazolidin-2-one] | 0.0094 µM | 0.0009 µM
CC(C(=O)Nc1ccc(CC[C@H]2COC(N)=N2)cc1)c1ccc(Cl)cc1 (stereo partly drawn) [Example 58, N-{4-[2-((S)-2-Amino-4,5-dihydro-oxazol-4-yl)-ethyl]-phenyl}-2-(4-chloro-phenyl)-propionamide] | 0.0014 µM | 0.0007 µM
N#Cc1ccc(C(=O)Nc2ccc(CC[C@H]3COC(N)=N3)cc2)cc1 [Example 59, N-{4-[2-((S)-2-Amino-4,5-dihydro-oxazol-4-yl)-ethyl]-phenyl}-4-cyano-benzamide] | 0.0022 µM | 0.0022 µM
COCc1ccc(C(=O)Nc2ccc(CC[C@H]3COC(N)=N3)cc2)cc1 [Example 63, N-{4-[2-((S)-2-Amino-4,5-dihydro-oxazol-4-yl)-ethyl]-phenyl}-4-methoxymethyl-benzamide] | 0.0026 µM | 0.0013 µM
CCOc1ccc(CC(=O)Nc2ccc(CC[C@H]3COC(N)=N3)cc2)cc1 [Example 66, N-{4-[2-((S)-2-Amino-4,5-dihydro-oxazol-4-yl)-ethyl]-phenyl}-2-(4-ethoxy-phenyl)-acetamide] | 0.0026 µM | 0.0017 µM
COc1ccc(CC(=O)Nc2ccc(CC[C@H]3COC(N)=N3)cc2)cc1 [Example 68, N-{4-[2-((S)-2-Amino-4,5-dihydro-oxazol-4-yl)-ethyl]-phenyl}-2-(4-methoxy-phenyl)-acetamide] | 0.0043 µM | 0.0019 µM
NC1=N[C@@H](CCc2ccc(NC(=O)Cc3ccc(F)cc3)cc2)CO1 [Example 69, N-{4-[2-((S)-2-Amino-4,5-dihydro-oxazol-4-yl)-ethyl]-phenyl}-2-(4-fluoro-phenyl)-acetamide] | 0.003 µM | 0.0009 µM
COC(C(=O)Nc1ccc(CC[C@H]2COC(N)=N2)cc1)c1ccc(Br)cc1 (stereo partly drawn) [Example 73, N-{4-[2-((S)-2-Amino-4,5-dihydro-oxazol-4-yl)-ethyl]-phenyl}-2-(4-bromo-phenyl)-2-methoxy-acetamide] | 0.0026 µM | 0.0049 µM
CO[C@H](C(=O)Nc1ccc(CC[C@H]2COC(N)=N2)cc1)c1ccccc1 [Example 74, (S)-N-{4-[2-((S)-2-Amino-4,5-dihydro-oxazol-4-yl)-ethyl]-phenyl}-2-methoxy-2-phenyl-acetamide] | 0.009 µM | 0.0073 µM
NC1=N[C@@H](CCc2ccc(NS(=O)(=O)c3ccc(Cl)c(Cl)c3)cc2)CO1 [Example 76, N-{4-[2-((S)-2-Amino-4,5-dihydro-oxazol-4-yl)-ethyl]-phenyl}-3,4-dichloro-benzenesulfonamide] | 0.009 µM | 0.0009 µM
COC(C(=O)Nc1ccc(CC[C@H]2COC(N)=N2)cc1)c1ccc(Cl)cc1 (stereo partly drawn) [Example 78, N-{4-[2-((S)-2-Amino-4,5-dihydro-oxazol-4-yl)-ethyl]-phenyl}-2-(4-chloro-phenyl)-2-methoxy-acetamide] | 0.0048 µM | 0.0031 µM
NC1=N[C@@H](CCc2ccc(NC(=O)C3CCC(C(F)(F)F)CC3)cc2)CO1 (stereo partly drawn) [Example 79, 4-Trifluoromethyl-cyclohexanecarboxylic acid {4-[2-((S)-2-amino-4,5-dihydro-oxazol-4-yl)-ethyl]-phenyl}-amide] | 0.0057 µM | 0.0051 µM
NC1=N[C@@H](CCc2ccc(NC(=O)CCc3ccccc3Cl)cc2)CO1 [Example 80, N-{4-[2-((S)-2-Amino-4,5-dihydro-oxazol-4-yl)-ethyl]-phenyl}-3-(2-chloro-phenyl)-propionamide] | 0.0014 µM | 0.0011 µM
CC(C(=O)Nc1ccc(CC[C@H]2COC(N)=N2)cc1)c1cccc(C(F)(F)F)c1 (stereo partly drawn) [Example 81, N-{4-[2-((S)-2-Amino-4,5-dihydro-oxazol-4-yl)-ethyl]-phenyl}-2-(3-trifluoromethyl-phenyl)-propionamide] | 0.001 µM | 0.0022 µM
COc1ncc(C(=O)Nc2ccc(CC[C@H]3COC(N)=N3)cc2)cn1 [Example 83, 2-Methoxy-pyrimidine-5-carboxylic acid {4-[2-((S)-2-amino-4,5-dihydro-oxazol-4-yl)-ethyl]-phenyl}-amide] | 0.0074 µM | 0.0052 µM
NC1=N[C@@H](CCc2ccc(NC(=O)c3ccc(-n4cccn4)nc3)cc2)CO1 [Example 85, N-{4-[2-((S)-2-Amino-4,5-dihydro-oxazol-4-yl)-ethyl]-phenyl}-6-pyrazol-1-yl-nicotinamide] | 0.0012 µM | 0.0015 µM
NC1=N[C@@H](CCc2ccc(NC(=O)c3nc4ccccc4[nH]3)cc2)CO1 [Example 86, 1H-Benzoimidazole-2-carboxylic acid {4-[2-((S)-2-amino-4,5-dihydro-oxazol-4-yl)-ethyl]-phenyl}-amide] | 0.0022 µM | 0.0006 µM

The next lines start with the values.

Ki (mouse TAAR1) | Ki (rat TAAR1) | SMILES
0.0008 µM | 0.0019 µM | NC1=N[C@@H](CCc2ccc(NC(=O)c3ccc(C(F)(F)F)cn3)cc2)CO1 [Example 54, 5-Trifluoromethyl-pyridine-2-carboxylic acid {4-[2-((S)-2-amino-4,5-dihydro-oxazol-4-yl)-ethyl]-phenyl}-amide]
0.001 µM | 0.0006 µM | CCOc1ccc(C(=O)Nc2ccc(CC[C@H]3COC(N)=N3)cc2)cc1 [Example 60, N-{4-[2-((S)-2-Amino-4,5-dihydro-oxazol-4-yl)-ethyl]-phenyl}-4-ethoxy-benzamide]
0.0002 µM | 0.0007 µM | CCCc1ccc(C(=O)Nc2ccc(CC[C@H]3COC(N)=N3)cc2)cc1 [Example 61, N-{4-[2-((S)-2-Amino-4,5-dihydro-oxazol-4-yl)-ethyl]-phenyl}-4-propyl-benzamide]
0.0003 µM | 0.0005 µM | C#Cc1ccc(C(=O)Nc2ccc(CC[C@H]3COC(N)=N3)cc2)cc1 [Example 62, N-{4-[2-((S)-2-Amino-4,5-dihydro-oxazol-4-yl)-ethyl]-phenyl}-4-ethynyl-benzamide]
0.001 µM | 0.001 µM | NC1=N[C@@H](CCc2ccc(NC(=O)Cc3ccc(Cl)cc3)cc2)CO1 [Example 70, N-{4-[2-((S)-2-Amino-4,5-dihydro-oxazol-4-yl)-ethyl]-phenyl}-2-(4-chloro-phenyl)-acetamide]
0.0009 µM | 0.0005 µM | COc1ccc(C(=O)Nc2ccc(CC[C@H]3COC(N)=N3)cc2)cc1 [Example 71, N-{4-[2-((S)-2-Amino-4,5-dihydro-oxazol-4-yl)-ethyl]-phenyl}-4-methoxy-benzamide]
0.0008 µM | 0.001 µM | CC(C)(C(=O)Nc1ccc(CC[C@H]2COC(N)=N2)cc1)c1ccc(Cl)cc1 [Example 72, N-{4-[2-((S)-2-Amino-4,5-dihydro-oxazol-4-yl)-ethyl]-phenyl}-2-(4-chloro-phenyl)-isobutyramide]
0.0005 µM | 0.0017 µM | CC(C(=O)Nc1ccc(CC[C@H]2COC(N)=N2)cc1)c1cccc(OC(F)(F)F)c1 (stereo partly drawn) [Example 82, N-{4-[2-((S)-2-Amino-4,5-dihydro-oxazol-4-yl)-ethyl]-phenyl}-2-(3-trifluoromethoxy-phenyl)-propionamide]
